Measurements: BindingDB's records for doi:10.7270/Q2B56H72 (Nmmlsc, 2011)

Biological target: T1, Beta-adrenergic receptor kinase 1 (Homo sapiens, UniProt P25098)
T1 sequence (P25098 whole entry): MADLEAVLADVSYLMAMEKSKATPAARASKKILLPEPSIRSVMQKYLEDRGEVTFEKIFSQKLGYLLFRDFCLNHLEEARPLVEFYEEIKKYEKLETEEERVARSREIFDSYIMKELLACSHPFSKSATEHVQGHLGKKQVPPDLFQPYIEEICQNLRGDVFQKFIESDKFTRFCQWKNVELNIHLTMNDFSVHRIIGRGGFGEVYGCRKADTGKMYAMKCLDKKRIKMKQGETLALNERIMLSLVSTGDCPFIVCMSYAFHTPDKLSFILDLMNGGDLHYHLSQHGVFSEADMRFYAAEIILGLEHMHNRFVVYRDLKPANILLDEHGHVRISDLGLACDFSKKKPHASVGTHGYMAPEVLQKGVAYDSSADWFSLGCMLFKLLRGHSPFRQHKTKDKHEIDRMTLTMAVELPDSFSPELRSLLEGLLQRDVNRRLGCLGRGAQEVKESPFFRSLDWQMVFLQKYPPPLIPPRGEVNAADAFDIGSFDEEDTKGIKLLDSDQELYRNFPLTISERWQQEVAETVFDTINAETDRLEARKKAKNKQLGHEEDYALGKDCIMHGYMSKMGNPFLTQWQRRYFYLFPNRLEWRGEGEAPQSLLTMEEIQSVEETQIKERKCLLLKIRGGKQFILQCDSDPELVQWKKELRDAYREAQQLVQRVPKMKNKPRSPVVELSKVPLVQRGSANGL
Test: aptamer displacement from bead-bound GRK2 – biochemical, cherry pick 1, bead flow cytometry, dose response (AID 504500)

Q: For `C=c1[nH]n(-c2cccc(C(=O)O)c2)c(=O)c1=CC=Cc1ccco1` [SMR000113614], which EC50 is on record?
A: Its EC50 is 14.8 µM.
